Patent US20150329864A1, “DESIGN OF OLIGONUCLEOTIDE ANALOGS AS THERAPEUTIC AGENTS” (SPRING BANK PHARMACEUTICALS, INC., priority 2010, published 2015)
“Also recorded” adds a separate entry of the source.

Molecular target: T1, RIG-I (Homo sapiens, UniProt O95786)
T1 sequence (O95786 1-925): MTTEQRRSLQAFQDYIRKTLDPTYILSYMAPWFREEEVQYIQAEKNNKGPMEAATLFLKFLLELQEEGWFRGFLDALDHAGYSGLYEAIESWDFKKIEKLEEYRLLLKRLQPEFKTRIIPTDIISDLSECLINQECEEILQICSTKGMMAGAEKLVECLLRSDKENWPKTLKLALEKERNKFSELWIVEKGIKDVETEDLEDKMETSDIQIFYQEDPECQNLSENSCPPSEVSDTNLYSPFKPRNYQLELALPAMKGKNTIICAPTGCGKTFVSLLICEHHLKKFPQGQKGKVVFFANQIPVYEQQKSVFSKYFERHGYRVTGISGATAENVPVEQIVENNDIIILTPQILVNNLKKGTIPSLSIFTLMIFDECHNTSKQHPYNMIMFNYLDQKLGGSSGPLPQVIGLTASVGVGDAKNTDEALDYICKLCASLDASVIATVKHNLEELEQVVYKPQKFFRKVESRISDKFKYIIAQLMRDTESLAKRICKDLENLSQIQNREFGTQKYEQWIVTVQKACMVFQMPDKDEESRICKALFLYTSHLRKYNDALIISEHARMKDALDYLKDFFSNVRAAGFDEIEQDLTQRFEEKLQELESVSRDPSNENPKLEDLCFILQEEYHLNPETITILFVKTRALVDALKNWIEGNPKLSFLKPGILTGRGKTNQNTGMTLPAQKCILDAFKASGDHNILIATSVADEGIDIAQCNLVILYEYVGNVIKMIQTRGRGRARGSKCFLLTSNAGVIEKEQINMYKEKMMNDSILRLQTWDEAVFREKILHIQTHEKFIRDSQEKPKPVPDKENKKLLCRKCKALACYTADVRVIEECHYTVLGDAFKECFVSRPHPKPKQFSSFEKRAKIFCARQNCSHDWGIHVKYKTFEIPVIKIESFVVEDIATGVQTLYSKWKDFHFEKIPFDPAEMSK
Experiment: RIG-I translocation on dsRNA, single-molecule PIFE assay
Format: biochemical
Procedure: An in vitro single-molecule fluorescence assay termed PIFE (protein induced fluorescence enhancement) was employed to monitor such movement (Myong, S. et al., Science, 323, 1070, 2009).
For quantitation of RIG-I translocation, Single molecule PIFE yields were estimated. Single molecule PIFE yields are obtained from several hundred molecules simultaneously, allowing statistically reliable data collection.
The translocation as above was carried out using different concentrations of nucleotide compound.
A standard dsRNA (25 bp) was used as a main substrate for RIG-I translocation assay. […] The ratio between rapid (stimulated) translocation and slow translocation would be accounted for in the estimation of compound strength. In order to quantify the affinity of the compound to RIG-I or to RNA substrate, various concentrations of the compound (1-100 μM range) were used in the assay. This enabled the calculation of the association/dissociation constant for each compound, which was a useful measure to apply in cell-based evaluation of compound potency.
The same translocation assay was used on dsRNA, which contains […] moiety with and without the compound.

SMILES: CO[C@H]1C(OP(=O)(S)OC[C@H]2O[C@@H](n3cnc4c(N)ncnc43)CC2O)[C@@H](CO)O[C@H]1n1ccc(=O)[nH]c1=O (some centres unmarked) [Compound 5, 3-dApsU2′-OMe]
- RIG-I translocation on dsRNA (activity in words) (PIFE assay): rapid translocation on dsRNA in a dose-dependent manner; also recorded: strong activators of RIG-I translocation
- proportion of fast RIG-I translocation (concentration increased from 5 μM up to 170 μM): corresponding increase in the proportion of fast translocation
